Assay [1] relates to bacteria causing the soft rot (Erwinia carotovora). The assay is described as follows: Inhibition test of growth of bacteria causing soft rot, Reference Test Example 5. Type of assay: cell-based. The settings on record: for formed colonies (growth state), grade: PSA medium, 27 degrees Celsius, 2 days. Here is the method:
An inhibition test of the growth of bacteria causing the soft rot was done, when a control agent was directly applied to the bacteria causing the soft rot. A given volume of each pesticide of mepanipyrim (Flupika FL [trade name] manufactured by Nippon Soda Co., Ltd.) and streptomycin (Mycin Wettable powder [trade name] manufactured by Hokko Chemical Industry Co., Ltd.) was added together with a suspension of the bacteria causing the soft rot (Erwinia carotovora) to a preliminarily dissolved PSA culture medium (55 degrees Celsius) for subsequent thorough agitation, which was then spread on a plate for culturing at 27 degrees Celsius for 2 days, to examine the growth state. Subsequently, the formed colonies were examined according to the following three grades. • +: at the same level as the level of non-treated lot.
(§1) Plus or minus: apparently less than the colonies of the non-treated lot. • −: almost no colonies observed.

For assay [2], the system named is soft rot of Chinese cabbage. The assay is described as follows: Test for controlling soft rot of Chinese cabbage, Example 4 / Comparative Example 4 (field, cultivar Ouraku 60). Type of assay: in vivo. The settings on record: 150 L/10 a sprayed onto planting holes before planting, 49 days after start. From the text:
Frequency of the disease=[sigma(number of plants with the onset of the disease at each severity level*index of the onset of the disease)/(plants examined*4)]*100
Disease control value=[1-(frequency of the disease in the treated lot/frequency of the disease in the non-treated lot)]*100
• 0: No onset • 1: Onset in some of outer leaves (shippable) • 2: Onset in outer leaves and some of head leaves (by removing damaged parts, the resulting cabbage can be shipped as small cabbage but is ranked as grade B). • 3: Most of head leaves are inflicted with the onset of the disease or with severer damages (not shippable) • 4: Whole cabbage plant is inflicted with the onset of the disease and is dead.
442 g/lkresoxim-methyl (STROBY FLOWABLE [trade name], manufactured by BASF) was adjusted to 500 g ai/10a (0.5 g/m^2, 1131 ml Product/10a) as the amount of the active ingredient and to 150 L/10a as the volume of diluent water.
70% w/w thiophanate methyl (Topsin M WF [trade name], manufactured by Nippon Soda Co., Ltd.) was adjusted to 1000 g ai/10a (1 g/m^2, 1429 g Product/10a) as the amount of the active ingredient and to 150 L/10a as the volume of diluent water.
50% w/w boscalid (Cantus DF [trade name], manufactured by BASF) was adjusted to 500 g ai/10a (0.5 g/m^2; 1000 g Product/10a) as the amount of the active ingredient and to 150 L/10a as the volume of diluent water.
50% w/w procymidone (Sumilex WP [trade name], manufactured by Sumitomo Chemical Agro) was adjusted to 500 g ai/10a (0.5 g/m^2, 1000 g Product/10a) as the amount of the active ingredient and to 150 L/10a as the volume of diluent water.
400 g/l iprodione (Rovral 500 Aqua [trade name], manufactured by Bayer Crop Science Co., Ltd.) was adjusted to 500 g ai/10a (0.5 g/m^2, […] Product/10a) as the amount of the active ingredient and to 150 L/10a as the volume of diluent water.
200 g/l fludioxonil (Seibia FLOWABLE [trade name], manufactured by Syngenta Japan K.K.) was adjusted to 500 g ai/10a (0.5 g/m^2, 2500 ml Product/10a) as the amount of the active ingredient and to 150 L/10a as the volume of diluent water.
400 g/l mepanipyrim (Flupika PLOWABLE [trade name], manufactured by Nippon Soda Co., Ltd.) was adjusted to 500 g ai/10a (0.5 g/m^2, 1250 ml Product/10a) as the amount of the active ingredient and to 150 L/10a as the volume of diluent water.
After spreading an agricultural mulch-sheet and opening planting holes (diameter of about 5 cm) for permanent planting through the mulch-sheet, the spray solutions prepared as described above were sprayed onto the planting holes such that the amount of treated active ingredient of each spray solution was 0.5 g/m^2 (150 L per 10a), followed by air-drying; subsequently, seedlings of Chinese cabbage (cultivar: Ouraku 60) grown for 4 weeks in cell mold trays (128 holes/nursery box) were planted such that 30 seedlings were planted in each test lot having an area of 2.5 m^2 with two replications.
Preparation was performed by diluting a chemical solution (Agrimycin WP100 [trade name] manufactured by Pfizer) containing oxytetracycline at 1.5% and streptomycin sulfate salt at 18.8% with water to 1/1500.
In a field spread with the agricultural mulch-sheet, Chinese cabbage seedlings (cultivar: Ouraku 60) grown by the same method as in Example 4 were planted by the same method as in Example 4, for spraying the spray solution prepared above in (1) (at each spray volume of 300 L/10a) twice (28 days and 42 days after the planting of the seedlings) on the stems and leaves.
49 days after the start of the tests, all the plants in each lot were examined about the severity level of the disease to assess the frequency of the disease and the disease control value. Herein, the frequency of the disease and the disease control value were determined in the same manner as described above. Because soft rot is a disease with damages hardly controlled, herein, even a chemical at the level C determined by the tests of the effects can practically be used.

Assay [3] has as its system bacteria causing the soft rot (Erwinia carotovora). The assay is described as follows: Inhibition test of growth of bacteria causing soft rot, Reference Test Example 4. Type of assay: cell-based. The following applies: for formed colonies (growth state), grade: PSA medium, 27 degrees Celsius, 2 days; for inhibition of growth of Erwinia carotovora (in words): active ingredient concentration of 1,000 ppm. The source says:
An inhibition test of the growth of bacteria causing the soft rot was done, when a control agent was directly applied to the bacteria causing the soft rot. A given volume of each pesticide of kresoxim-methyl (STROBY DF [trade name] manufactured by BASF), thiophanate methyl (Topsin M WP [trade name], manufactured by Nippon Soda Co., Ltd), boscalid (Cantus DF [trade name] manufactured by BASF), procymidone (Sumilex WP [trade name] manufactured by Sumitomo Chemical Agro Co., Ltd.) and streptomycin (Mycin Wettable powder [trade name] manufactured by Hokko Chemical Industry Co., Ltd.) was added together with a suspension of the bacteria causing the soft rot (Erwinia carotovora) to a preliminarily dissolved PSA culture medium (55 degrees Celsius) for subsequent thorough agitation, which was then spread on a plate for culturing at 27 degrees Celsius for 2 days, to examine the growth state. Subsequently, the formed colonies were examined according to the following three grades. • +: at the same level as the level of non-treated lot. Plus or minus: apparently less than the colonies of the non-treated lot. • −: almost no colonies observed.

The test system is the same in assay [4]. The assay is described as follows: Inhibition test of growth of bacteria causing soft rot, Reference Test Example 6. Type of assay: cell-based. The following applies: for formed colonies (growth state), grade: PSA medium, 27 degrees Celsius, 3 days; for inhibition of growth of Erwinia carotovora (in words): active ingredient concentration of 1,000 ppm.
Description: An inhibition test of the growth of bacteria causing the soft rot was done, when a control agent was directly applied to the bacteria causing the soft rot. A given volume of each pesticide of fludioxonil (Seibia FL [trade name] manufactured by Syngenta Japan K.K.), iminoctadine albesilate salt (Bellkute WP [trade name], manufactured by Nippon Soda Co., Ltd.), iprodione (Rovral WP [trade name] manufactured by Bayer Crop Science Co., Ltd.), and streptomycin (Mycin Wettable powder [trade name] manufactured by Hokko Chemical Industry Co., Ltd.) was added together with a suspension of the bacteria causing the soft rot (Erwinia carotovora) to a preliminarily dissolved PSA culture medium (55 degrees Celsius) for subsequent thorough agitation, which was then spread on a plate for culturing at 27 degrees Celsius for 3 days, to examine the growth state. Subsequently, the formed colonies were examined according to the following three grades. • +: at the same level as the level of non-treated lot.
as §1

Data on six compounds can be found in US20130123287A1, “CONTROL AGENT FOR SOFT ROT AND CONTROL METHOD FOR THE SAME” (ISHIHARA SANGYO KAISHA, LTD., priority 2010, published 2013).

As to `CC#Cc1cc(C)nc(Nc2ccccc2)n1` [Mepanipyrim, N-(4-methyl-6-prop-1-ynylpyrimidin-2-yl)aniline], the “formed colonies (growth state), grade” value is “+, +” in assay [1] (100 ppm active ingredient); “+, +” in assay [1] (500 ppm active ingredient); “+, +” in assay [1] (1000 ppm active ingredient). For the same compound, the “inhibition of growth of Erwinia carotovora (in words)” value (from here on “inhibition”) in assay [1] (active ingredient concentration of 1,000 ppm) is recorded as “never inhibited the growth”. In assay [2] (500 g ai/10 a), the Determination of effect result is on record as “B (B: Effective (41 to 60 disease control value))”.

Consider `COC(=O)NC(=S)Nc1ccccc1NC(=S)NC(=O)OC` [Thiophanate methyl, dimethyl=4,4′-(o-phenylene)bis(3-thioallophanate)], for which the “formed colonies (growth state), grade” value was “+, +” in assay [3] (100 ppm active ingredient); “+, +” in assay [3] (500 ppm active ingredient); “+, +” in assay [3] (1000 ppm active ingredient). Further, the “inhibition” value in assay [3] is reported as “never inhibited the growth”. Also, the Determination of effect result in assay [2] (1000 g ai/10 a) is given as “B (B: Effective (41 to 60 disease control value))”.

Regarding `O=C(Nc1ccccc1-c1ccc(Cl)cc1)c1cccnc1Cl` [Boscalid, 2-chloro-N-(4′-chlorobiphenyl-2-yl)nicotinamide], the “formed colonies (growth state), grade” value is given as “+, +” in assay [3] (100 ppm active ingredient); “+, +” in assay [3] (500 ppm active ingredient); “+, +” in assay [3] (1000 ppm active ingredient). For the same compound, the “inhibition” value in assay [3] is listed as “never inhibited the growth”. Further, the Determination of effect entry in assay [2] (500 g ai/10 a) is “C (C: Effective at low level (21 to 40 disease control value))”.

For the compound `N#Cc1c[nH]cc1-c1cccc2c1OC(F)(F)O2` [Fludioxonil, 4-(2,2-difluoro-1,3-benzodioxol-4-yl)pyrrole-3-carbonitrile], the “formed colonies (growth state), grade” value was “+, +” in assay [4] (100 ppm active ingredient); “+, +” in assay [4] (500 ppm active ingredient); “+, +” in assay [4] (1000 ppm active ingredient). For the same compound, in assay [4], the “inhibition” value is listed as “never inhibited the growth”. For the same compound, the Determination of effect entry in assay [2] (500 g ai/10 a) was “C (C: Effective at low level (21 to 40 disease control value))”.

As to `CC12CC1(C)C(=O)N(c1cc(Cl)cc(Cl)c1)C2=O` (stereo not drawn) [Procymidone, N-(3,5-dichlorophenyl)-1,2-dimethylcyclopropane-1,2-dicarboximide], the “formed colonies (growth state), grade” value in assay [3] (100 ppm active ingredient) is given as “+, +”; in assay [3] (500 ppm active ingredient), “+, +”; in assay [3] (1000 ppm active ingredient) it was “+, +”. Besides, the “inhibition” value in assay [3] is reported as “never inhibited the growth”. Moreover, the Determination of effect entry in assay [2] (500 g ai/10 a) is “A (A: Highly effective (61 or larger disease control value))”.

Consider `CC(C)NC(=O)N1CC(=O)N(c2cc(Cl)cc(Cl)c2)C1=O` [Iprodione, 3-(3,5-dichlorophenyl)-N-isopropyl-2,4-dioxoimidazolizine-1-carboxamide], for which the “formed colonies (growth state), grade” value is listed as “+, +” in assay [4] (100 ppm active ingredient); “+, +” in assay [4] (500 ppm active ingredient); “+, +” in assay [4] (1000 ppm active ingredient). Further, the “inhibition” value in assay [4] is reported as “never inhibited the growth”. Further, the Determination of effect result in assay [2] (500 g ai/10 a) was “B (B: Effective (41 to 60 disease control value))”.
